Experimental data reported in patent US12577245B2, “Sulfonyl benzamide derivatives as Bcl-2 inhibitors” (ASCENTAGE PHARMA (SUZHOU) CO., LTD., priority 2021, dated 2026).
Read-outs that look alike come from different tables or passages of the source.

How the values were obtained:
[1] = molecular target: Bcl-2 WT (Homo sapiens, UniProt P10415); assay: Bcl-2 WT inhibition, fluorescence polarization (Flu-BIM tracer) binding assay
[2] = test system: MV-4-11 cells; assay: CCK-8 cell viability assay in MV-4-11 cells; assay type: cell-based; settings: Homo sapiens, MV4-11, 72 h, 10% FBS, 3 days
Procedure: MV-4-11 cells were obtained from University of Michigan. Cells were maintained in the RPMI-1640 medium with 10% FBS and 1% P/S at 37° C. and an atmosphere of 5% CO2.
• The effect of representative Compounds of the Disclosure on cell viability was determined using Cell Counting Kit-8 (CCK-8) assay (Shanghai Life iLab Biotech) according to the manufacturer's instructions. Each tested compound was serially diluted in culture medium, and 100 μL of the compound dilution was added to the corresponding well of the cell plate. 100 μL of MV-4-11 cell suspension (20000 cells/well) in culture medium were seeded into 96-well plates. The cells were incubated at 37° C. in an atmosphere of 5% CO2 for 3 days. At the end of 3 days, 20 μL of CCK-8 solution was added to each well of the plate and incubated for 1-4 hours. The plates were read at 450 nm on the Biotek plate reader. The readings were normalized to the vehicle cells, and the IC50 was calculated using GraphPad Prism 8 software.

[3] = test system: RS4; 11Bcl-2-G101V cells; assay: CellTiter-Glo (CTG) cell viability assay in RS4;11-Bcl-2-G101V cells; assay type: cell-based; settings: 72 h, 10% FBS, 3 days
Procedure: RS4; 11Bcl-2-G101V, RS4; 11Bcl-2-D103E, RS4; 11Bcl-2-V156D and RS4; 11Bcl-2-G101V-D103E cells were obtained from Cobioer Biosciences. Cells were maintained in the RPMI-1640 medium with 10% FBS, 1% P/S and puromycin (1 μg/mL) at 37° C. and an atmosphere of 5% CO2.
• The effect of representative Compounds of the Disclosure on cell viability was determined using CellTiter-Glo® (CTG) luminescent cell viability assay (Promega, USA) according to the manufacturer's instructions. 95 μL of cell suspension (10000 cells/well) in culture medium were seeded into 96-well plates and cultured 4 hours. Each tested compound was serially diluted in blank culture medium, and 5 μL of the compound dilution was added to the corresponding well of the cell plate. After the addition of the tested compound, the cells were incubated at 37° C. in an atmosphere of 5% CO2 for 3 days. At the end of 3 days, 30 μL of CTG solution was added to each well of the plate and mix contents for 2 minutes on an orbital shaker. Allow the plate to incubate at room temperature for 15 mins to stabilize signal and record RLU on the Biotek plate reader. The readings were normalized to the vehicle cells, and the IC50 was calculated using GraphPad Prism 8 software.

[4] = FP, 20 nM Bcl2, 5 nM Flu-BIM, 1 h incubation, read-out: Bcl-2 w.t. (FP)

Bcl-2 WT, sequence (P10415 whole entry): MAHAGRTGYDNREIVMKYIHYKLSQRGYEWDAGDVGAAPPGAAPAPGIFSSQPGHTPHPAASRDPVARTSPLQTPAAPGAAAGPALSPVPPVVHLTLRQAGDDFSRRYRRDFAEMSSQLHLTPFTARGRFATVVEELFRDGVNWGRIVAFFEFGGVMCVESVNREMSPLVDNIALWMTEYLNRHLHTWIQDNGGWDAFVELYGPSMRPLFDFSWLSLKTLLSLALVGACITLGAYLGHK

SMILES | IC50 [1, 4] [µM] | IC50 [2] [µM] | IC50 [3] [µM] | IC50 [1] [µM]
CC1(C)CCC(CN2CCN(c3ccc(C(=O)NS(=O)(=O)c4ccc(NC[C@H]5CC[C@](C)(O)CC5)c([N+](=O)[O-])c4)c(Oc4cnc5[nH]ccc5c4)c3)CC2)=C(c2cc3c(s2)CCN(c2ccc(F)cc2)C3)C1 [Example 16, 2-((1H-pyrrolo[2,3-b]pyridin-5-yl)oxy)-4-(4-((2-(5-(4-fluorophenyl)-4,5,6,7-tetrahydrothieno[3,2-c]pyridin-2-yl)-4,4-dimethylcyclohex-1-en-1-yl)methyl)piperazin-1-yl)-N-((4-((((1r,4r)-4-hydroxy-4-methylcyclohexyl)methyl)amino)-3-nitrophenyl)sulfonyl)benzamide] | 0.042 | 0.445 | 5.63 | –
CC1(C)CCC(CN2CCN(c3ccc(C(=O)NS(=O)(=O)c4ccc(NC[C@H]5COCCO5)c([N+](=O)[O-])c4)c(Oc4cnc5[nH]ccc5c4)c3)CC2)=C(c2cc(C(=O)Nc3ccccc3)cs2)C1 [Example 17, (S)-5-(2-((4-(4-(((4-(((1,4-dioxan-2-yl)methyl)amino)-3-nitrophenyl)sulfonyl)carbamoyl)-3-((1H-pyrrolo[2,3-b]pyridin-5-yl)oxy)phenyl)piperazin-1-yl)methyl)-5,5-dimethylcyclohex-1-en-1-yl)-N-phenylthiophene-3-carboxamide] | – | 0.262 | 4.25 | 0.0309
CC1(C)CCC(CN2CCN(c3ccc(C(=O)NS(=O)(=O)c4ccc(NC[C@H]5COCCO5)c([N+](=O)[O-])c4)c(Oc4cnc5[nH]ccc5c4)c3)CC2)=C(c2cc(NC(=O)c3ccccc3)cs2)C1 [Example 18, (S)—N-((4-(((1,4-dioxan-2-yl)methyl)amino)-3-nitrophenyl)sulfonyl)-2-((1H-pyrrolo[2,3-b]pyridin-5-yl)oxy)-4-(4-((2-(4-benzamidothiophen-2-yl)-4,4-dimethylcyclohex-1-en-1-yl)methyl)piperazin-1-yl)benzamide] | 0.0375 | 0.323 | 2.04 | –
CC1(C)CCC(CN2CCN(c3ccc(C(=O)NS(=O)(=O)c4ccc(NC[C@H]5COCCO5)c([N+](=O)[O-])c4)c(Oc4cnc5[nH]ccc5c4)c3)CC2)=C(c2cc(Nc3ncccn3)cs2)C1 [Example 19, (S)—N-((4-(((1,4-dioxan-2-yl)methyl)amino)-3-nitrophenyl)sulfonyl)-2-((1H-pyrrolo[2,3-b]pyridin-5-yl)oxy)-4-(4-((4,4-dimethyl-2-(4-(pyrimidin-2-ylamino)thiophen-2-yl)cyclohex-1-en-1-yl)methyl)piperazin-1-yl)benzamide] | 0.0246 | 0.138 | 0.98 | –
CC1(C)CCC(CN2CCN(c3ccc(C(=O)NS(=O)(=O)c4ccc(NCC5CCOCC5)c([N+](=O)[O-])c4)c(Oc4cnc5[nH]ccc5c4)c3)CC2)=C(c2csc(CN3CCOCC3)c2)C1 [Example 21, 2-((1H-pyrrolo[2,3-b]pyridin-5-yl)oxy)-4-(4-((4,4-dimethyl-2-(5-(morpholinomethyl)thiophen-3-yl)cyclohex-1-en-1-yl)methyl)piperazin-1-yl)-N-((3-nitro-4-(((tetrahydro-2H-pyran-4-yl)methyl)amino)phenyl)sulfonyl)benzamide] | 0.0271 | 0.323 | 3.79 | –
CC1(C)CCC(CN2CCN(c3ccc(C(=O)NS(=O)(=O)c4ccc(NC[C@H]5COCCO5)c([N+](=O)[O-])c4)c(Oc4cnc5[nH]ccc5c4)c3)CC2)=C(c2cc(CN3CCOCC3)cs2)C1 [Example 22, (S)—N-((4-(((1,4-dioxan-2-yl)methyl)amino)-3-nitrophenyl)sulfonyl)-2-((1H-pyrrolo[2,3-b]pyridin-5-yl)oxy)-4-(4-((4,4-dimethyl-2-(4-(morpholinomethyl)thiophen-2-yl)cyclohex-1-en-1-yl)methyl)piperazin-1-yl)benzamide] | 0.0254 | 0.083 | 0.44 | –
CC1(C)CCC(CN2CCN(c3ccc(C(=O)NS(=O)(=O)c4ccc(NC[C@H]5CC[C@@](C)(O)CC5)c([N+](=O)[O-])c4)c(Oc4cnc5[nH]ccc5c4)c3)CC2)=C(c2cc(CN3CCOCC3)cs2)C1 [Example 23, 2-((1H-pyrrolo[2,3-b]pyridin-5-yl)oxy)-4-(4-((4,4-dimethyl-2-(4-(morpholinomethyl)thiophen-2-yl)cyclohex-1-en-1-yl)methyl)piperazin-1-yl)-N-((4-((((1s,4s)-4-hydroxy-4-methylcyclohexyl)methyl)amino)-3-nitrophenyl)sulfonyl)benzamide] | 0.0157 | 0.18 | 0.93 | –
CC1(C)CCC(CN2CCN(c3ccc(C(=O)NS(=O)(=O)c4ccc(NC[C@H]5CC[C@](C)(O)CC5)c([N+](=O)[O-])c4)c(Oc4cnc5[nH]ccc5c4)c3)CC2)=C(c2cc(CN3CCOCC3)cs2)C1 [Example 24, 2-((1H-pyrrolo[2,3-b]pyridin-5-yl)oxy)-4-(4-((4,4-dimethyl-2-(4-(morpholinomethyl)thiophen-2-yl)cyclohex-1-en-1-yl)methyl)piperazin-1-yl)-N-((4-((((1r,4r)-4-hydroxy-4-methylcyclohexyl)methyl)amino)-3-nitrophenyl)sulfonyl)benzamide] | 0.0159 | 0.04 | 0.34 | –
CC1(C)CCC(CN2CCN(c3ccc(C(=O)NS(=O)(=O)c4ccc(NCC5CCOCC5)c([N+](=O)[O-])c4)c(Oc4cnc5[nH]ccc5c4)c3)CC2)=C(c2ccsc2CN2CCOCC2)C1 [Example 25, 2-((1H-pyrrolo[2,3-b]pyridin-5-yl)oxy)-4-(4-((4,4-dimethyl-2-(2-(morpholinomethyl)thiophen-3-yl)cyclohex-1-en-1-yl)methyl)piperazin-1-yl)-N-((3-nitro-4-(((tetrahydro-2H-pyran-4-yl)methyl)amino)phenyl)sulfonyl)benzamide] | 0.0254 | 0.225 | 1.81 | –
CC1(C)CCC(CN2CCN(c3ccc(C(=O)NS(=O)(=O)c4ccc(NCC5CCOCC5)c([N+](=O)[O-])c4)c(Oc4cnc5[nH]ccc5c4)c3)CC2)=C(c2ccc(CN3CCOCC3)s2)C1 [Example 26, 2-((1H-pyrrolo[2,3-b]pyridin-5-yl)oxy)-4-(4-((4,4-dimethyl-2-(5-(morpholinomethyl)thiophen-2-yl)cyclohex-1-en-1-yl)methyl)piperazin-1-yl)-N-((3-nitro-4-(((tetrahydro-2H-pyran-4-yl)methyl)amino)phenyl)sulfonyl)benzamide] | 0.0264 | 0.246 | 2.59 | –
CC1(C)CCC(CN2CCN(c3ccc(C(=O)NS(=O)(=O)c4ccc(NC[C@H]5COCCO5)c([N+](=O)[O-])c4)c(Oc4cnc5[nH]ccc5c4)c3)CC2)=C(c2cc(CN3CCC(N4CCOCC4)CC3)cs2)C1 [Example 28, (S)—N-((4-(((1,4-dioxan-2-yl)methyl)amino)-3-nitrophenyl)sulfonyl)-2-((1H-pyrrolo[2,3-b]pyridin-5-yl)oxy)-4-(4-((4,4-dimethyl-2-(4-((4-morpholinopiperidin-1-yl)methyl)thiophen-2-yl)cyclohex-1-en-1-yl)methyl)piperazin-1-yl)benzamide] | 0.0207 | 0.276 | 1.21 | –
C[C@@H]1CN(Cc2csc(C3=C(CN4CCN(c5ccc(C(=O)NS(=O)(=O)c6ccc(NC[C@H]7COCCO7)c([N+](=O)[O-])c6)c(Oc6cnc7[nH]ccc7c6)c5)CC4)CCC(C)(C)C3)c2)C[C@H](C)N1C [Example 29, N-((4-((((S)-1,4-dioxan-2-yl)methyl)amino)-3-nitrophenyl)sulfonyl)-2-((1H-pyrrolo[2,3-b]pyridin-5-yl)oxy)-4-(4-((4,4-dimethyl-2-(4-(((3S,5R)-3,4,5-trimethylpiperazin-1-yl)methyl)thiophen-2-yl)cyclohex-1-en-1-yl)methyl)piperazin-1-yl)benzamide] | 0.0267 | 0.422 | 0.75 | –
CC1(C)CCC(CN2CCN(c3ccc(C(=O)NS(=O)(=O)c4ccc(NC[C@H]5COCCO5)c([N+](=O)[O-])c4)c(Oc4cnc5[nH]ccc5c4)c3)CC2)=C(c2cc(CN3CCN4CCOC[C@H]4C3)cs2)C1 [Example 30, N-((4-((((S)-1,4-dioxan-2-yl)methyl)amino)-3-nitrophenyl)sulfonyl)-2-((1H-pyrrolo[2,3-b]pyridin-5-yl)oxy)-4-(4-((2-(4-(((R)-hexahydropyrazino[2,1-c][1,4]oxazin-8(1H)-yl)methyl)thiophen-2-yl)-4,4-dimethylcyclohex-1-en-1-yl)methyl)piperazin-1-yl)benzamide] | 0.0236 | 0.564 | 1.44 | –
